Converted amounts (≈) assume the structure as drawn.
Assays:
Apis mellifera = conditions: acute; duration: 48 hours; oral; unspecified; mortality
Canidae = conditions: oral, Dog Other, clinical chemistry
Daphnia magna = conditions: chronic/long-term; duration: 21 days
Lepomis macrochirus = conditions: acute; duration: 96 hours; mortality
Pimephales promelas = conditions: chronic/long-term; duration: 34 days; growth
Tagia sp. = conditions: acute; duration: 14 days; mortality
Typhlodromus pyri = experiment: LR50; higher = less toxic; conditions: not reported; mortality

## CCOP(=S)(OCC)Oc1cc(C)nc(C(C)C)n1 [Diazinon]
Anas platyrhynchos; acute, oral, unspecified, mortality
  LD50: 1.44 mg/kg
Anas platyrhynchos; reproductive
  NOEL: 1.2 mg/kg-day
Anas platyrhynchos; short-term, duration: 8 days, oral, feed, mortality
  LC50: 8 mg/kg-day
Apis mellifera
  LD50: 0.09 µg/piece
Canidae; chronic, duration: 52 weeks
  NOAEL: 0.02 mg/kg-day
Canidae; subchronic, duration: 90 days
  NOAEL: 0.02 mg/kg-day
Daphnia magna
  NOEC: 0.00017 mg/L
Lepomis macrochirus
  LC50: 0.27 µg/mL (≈ 0.887 µM)
Pimephales promelas
  NOEC: 0.092 mg/L
Rattus norvegicus; acute, oral, clinical chemistry
  NOAEL: 2.5 mg/kg-day
Rattus norvegicus; acute, oral, mortality
  LD50: 1130 mg/kg-day
Rattus norvegicus; reproduction developmental, reproduction
  NOEC: 0.65 mg/kg-day
Tagia sp.
  LC50: 65 mg/kg
  NOEL: 6.15 mg/kg
Typhlodromus pyri
  LR50: 0.153 g/ha
